In the NIST ThermoML archive (doi:10.1021/je800789b):
Numbers after ± are expanded uncertainties.

Settings: Crystal

| Normal melting temperature [°C] | Structure (SMILES) |
| --- | --- |
| 29.8 ± 1.2 | O=C(O)CC1CCCCC1 [cyclohexylethanoic acid] |
| 6.2 ± 0.4 | CCCCCCCCCCO [decan-1-ol] |
| 29.8 ± 1.2 | O=C(O)C1CCCCC1 [cyclohexanecarboxylic acid] |
| 24.1 ± 0.6 | CCCCCCCCCCCCO [dodecan-1-ol] |
